Measurements: US11445724B2, “Insecticidal compounds” (SYNGENTA PARTICIPATIONS AG, priority 2013, dated 2022)

How the values were obtained:
Assay type in all cases: in vivo
[1] = tested on: Tetranychus urticae (Two-spotted spider mite); assay: Tetranychus urticae (Two-spotted spider mite) mortality, sprayed bean leaf discs; conditions: foliar, 192 h, 200 ppm spray on bean leaf discs, mixed ages, egg, larval and adult mortality after 8 days
[2] = tested on: Diabrotica balteata (Corn root worm); assay: Diabrotica balteata (Corn root worm) larval mortality, artificial diet in 24-well MTP; conditions: 120 h, application rate 200 ppm (concentration in well 18 ppm), L2 larvae, larval mortality after 5 days
[3] = tested on: Spodoptera littoralis (Egyptian cotton leafworm); assay: Spodoptera littoralis (Egyptian cotton leafworm) mortality, sprayed cotton leaf discs; conditions: foliar, 72 h, 200 ppm spray on cotton leaf discs, L1 larvae, mortality 3 DAT
[4] = tested on: Thrips tabaci (Onion thrips); assay: Thrips tabaci (Onion thrips) mortality, sprayed sunflower leaf discs; conditions: foliar, 168 h, 200 ppm spray on sunflower leaf discs, mixed ages, mortality after 7 days
[5] = tested on: Plutella xylostella (Diamond back moth); assay: Plutella xylostella (Diamond back moth) larval mortality, artificial diet in 24-well MTP; conditions: 144 h, application rate 200 ppm (concentration in well 18 ppm), L2 larvae, larval mortality after 6 days
[6] = tested on: Myzus persicae (Green peach aphid); assay: Myzus persicae (Green peach aphid) mortality, sprayed sunflower leaf discs; conditions: foliar, 144 h, 200 ppm spray on sunflower leaf discs, mixed ages, mortality 6 DAT
[7] = tested on: Myzus persicae (Green peach aphid); assay: Myzus persicae (Green peach aphid) mortality, test compounds mixed with Sucrose solution under Parafilm; conditions: 120 h, 12.5 ppm in Sucrose solution, infested pea seedlings on Parafilm, mortality 5 days after infestation

Cc1ccc(C(=O)Nc2cccc(C(=O)Nc3c(Cl)cc(C(F)(C(F)(F)F)C(F)(F)F)cc3OC(F)F)c2F)cc1 [Compound 51]
≥ 80%: pest or weed control at 200 ppm [1] | pest or weed control at 200 ppm [2] | pest or weed control at 200 ppm [3] | pest or weed control at 200 ppm [4] | pest or weed control at 200 ppm [5] | pest or weed control at 200 ppm [6] | pest or weed control at 12.5 ppm [7]

CCN(C(=O)c1cc[n+]([O-])cc1)c1cccc(C(=O)Nc2c(Br)cc(C(F)(C(F)(F)F)C(F)(F)F)cc2OC(F)F)c1OC [Compound 12]
≥ 80%: pest or weed control at 200 ppm [1] | pest or weed control at 200 ppm [2] | pest or weed control at 200 ppm [3] | pest or weed control at 200 ppm [4] | pest or weed control at 200 ppm [5] | pest or weed control at 200 ppm [6] | pest or weed control at 12.5 ppm [7]

O=C(Nc1cccc(C(=O)Nc2c(Br)cc(C(F)(C(F)(F)F)C(F)(F)F)cc2OC(F)F)c1F)c1ccc(F)cc1 [Compound 32]
≥ 80%: pest or weed control at 200 ppm [1] | pest or weed control at 200 ppm [2] | pest or weed control at 200 ppm [3] | pest or weed control at 200 ppm [4] | pest or weed control at 200 ppm [5] | pest or weed control at 200 ppm [6] | pest or weed control at 12.5 ppm [7]

CCN(C(=O)c1ccc(F)cc1)c1cccc(C(=O)Nc2c(Br)cc(C(F)(C(F)(F)F)C(F)(F)F)cc2OC(F)F)c1OC [Compound 139]
≥ 80%: pest or weed control at 200 ppm [1] | pest or weed control at 200 ppm [2] | pest or weed control at 200 ppm [3] | pest or weed control at 200 ppm [4] | pest or weed control at 200 ppm [5] | pest or weed control at 200 ppm [6] | pest or weed control at 12.5 ppm [7]

COc1c(NC(=O)c2ccc(F)cc2)cccc1C(=O)Nc1c(Br)cc(C(F)(C(F)(F)F)C(F)(F)F)cc1OC(F)F [Compound 61]
≥ 80%: pest or weed control at 200 ppm [1] | pest or weed control at 200 ppm [2] | pest or weed control at 200 ppm [3] | pest or weed control at 200 ppm [4] | pest or weed control at 200 ppm [5] | pest or weed control at 200 ppm [6] | pest or weed control at 12.5 ppm [7]

COc1c(NC(=O)c2ccc([N+](=O)[O-])cc2Cl)cccc1C(=O)Nc1c(Cl)cc(C(F)(C(F)(F)F)C(F)(F)F)cc1OC(F)F [Compound 86]
≥ 80%: pest or weed control at 200 ppm [1] | pest or weed control at 200 ppm [2] | pest or weed control at 200 ppm [3] | pest or weed control at 200 ppm [4] | pest or weed control at 200 ppm [5] | pest or weed control at 200 ppm [6] | pest or weed control at 12.5 ppm [7]

CCN(C(=O)c1ccncc1)c1cccc(C(=O)Nc2c(Cl)cc(C(F)(C(F)(F)F)C(F)(F)F)cc2OC(F)F)c1OC [Compound 20]
≥ 80%: pest or weed control at 200 ppm [1] | pest or weed control at 200 ppm [2] | pest or weed control at 200 ppm [3] | pest or weed control at 200 ppm [4] | pest or weed control at 200 ppm [5] | pest or weed control at 200 ppm [6] | pest or weed control at 12.5 ppm [7]

O=C(Nc1cccc(C(=O)Nc2c(Cl)cc(C(F)(C(F)(F)F)C(F)(F)F)cc2OC(F)F)c1F)c1cccc(F)c1F [Compound 76]
≥ 80%: pest or weed control at 200 ppm [1] | pest or weed control at 200 ppm [2] | pest or weed control at 200 ppm [3] | pest or weed control at 200 ppm [4] | pest or weed control at 200 ppm [5] | pest or weed control at 200 ppm [6] | pest or weed control at 12.5 ppm [7]

CCN(C(=O)c1ccc(F)cc1Cl)c1cccc(C(=O)Nc2c(Cl)cc(C(F)(C(F)(F)F)C(F)(F)F)cc2OC(F)F)c1F [Compound 122]
≥ 80%: pest or weed control at 200 ppm [1] | pest or weed control at 200 ppm [2] | pest or weed control at 200 ppm [3] | pest or weed control at 200 ppm [4] | pest or weed control at 200 ppm [5] | pest or weed control at 200 ppm [6] | pest or weed control at 12.5 ppm [7]

CCN(C(=O)c1ccc(C#N)cc1)c1cccc(C(=O)Nc2c(Br)cc(C(F)(C(F)(F)F)C(F)(F)F)cc2OC(F)F)c1OC [Compound 9]
≥ 80%: pest or weed control at 200 ppm [1] | pest or weed control at 200 ppm [2] | pest or weed control at 200 ppm [3] | pest or weed control at 200 ppm [4] | pest or weed control at 200 ppm [5] | pest or weed control at 200 ppm [6] | pest or weed control at 12.5 ppm [7]

CCN(C(=O)c1ccc([N+](=O)[O-])cc1Cl)c1cccc(C(=O)Nc2c(Br)cc(C(F)(C(F)(F)F)C(F)(F)F)cc2OC(F)F)c1OC [Compound 135]
≥ 80%: pest or weed control at 200 ppm [1] | pest or weed control at 200 ppm [2] | pest or weed control at 200 ppm [3] | pest or weed control at 200 ppm [4] | pest or weed control at 200 ppm [5] | pest or weed control at 200 ppm [6] | pest or weed control at 12.5 ppm [7]

O=C(Nc1cccc(C(=O)Nc2c(Br)cc(C(F)(C(F)(F)F)C(F)(F)F)cc2OC(F)F)c1F)c1ccccc1Cl [Compound 21]
≥ 80%: pest or weed control at 200 ppm [1] | pest or weed control at 200 ppm [2] | pest or weed control at 200 ppm [3] | pest or weed control at 200 ppm [4] | pest or weed control at 200 ppm [5] | pest or weed control at 200 ppm [6] | pest or weed control at 12.5 ppm [7]

CCN(C(=O)c1ccc(F)cc1)c1cccc(C(=O)Nc2c(Cl)cc(C(F)(C(F)(F)F)C(F)(F)F)cc2OC(F)F)c1F [Compound 120]
≥ 80%: pest or weed control at 200 ppm [1] | pest or weed control at 200 ppm [2] | pest or weed control at 200 ppm [3] | pest or weed control at 200 ppm [4] | pest or weed control at 200 ppm [5] | pest or weed control at 200 ppm [6] | pest or weed control at 12.5 ppm [7]

CCN(C(=O)c1ccncc1)c1cccc(C(=O)Nc2c(Br)cc(C(F)(C(F)(F)F)C(F)(F)F)cc2OC(F)F)c1OC [Compound 4]
≥ 80%: pest or weed control at 200 ppm [1] | pest or weed control at 200 ppm [2] | pest or weed control at 200 ppm [3] | pest or weed control at 200 ppm [4] | pest or weed control at 200 ppm [5] | pest or weed control at 200 ppm [6] | pest or weed control at 12.5 ppm [7]

O=C(Nc1cccc(C(=O)Nc2c(Cl)cc(C(F)(C(F)(F)F)C(F)(F)F)cc2OC(F)F)c1F)c1ccc(OC(F)(F)F)cc1 [Compound 60]
≥ 80%: pest or weed control at 200 ppm [1] | pest or weed control at 200 ppm [2] | pest or weed control at 200 ppm [3] | pest or weed control at 200 ppm [4] | pest or weed control at 200 ppm [5] | pest or weed control at 200 ppm [6] | pest or weed control at 12.5 ppm [7]

O=C(Nc1cccc(C(=O)Nc2c(Br)cc(C(F)(C(F)(F)F)C(F)(F)F)cc2OC(F)F)c1F)c1ccc(C(F)(F)F)cc1 [Compound 28]
≥ 80%: pest or weed control at 200 ppm [1] | pest or weed control at 200 ppm [2] | pest or weed control at 200 ppm [3] | pest or weed control at 200 ppm [4] | pest or weed control at 200 ppm [5] | pest or weed control at 200 ppm [6] | pest or weed control at 12.5 ppm [7]

O=C(Nc1cccc(C(=O)Nc2c(Cl)cc(C(F)(C(F)(F)F)C(F)(F)F)cc2OC(F)F)c1F)c1ccc([N+](=O)[O-])cc1 [Compound 49]
≥ 80%: pest or weed control at 200 ppm [1] | pest or weed control at 200 ppm [2] | pest or weed control at 200 ppm [3] | pest or weed control at 200 ppm [4] | pest or weed control at 200 ppm [5] | pest or weed control at 200 ppm [6] | pest or weed control at 12.5 ppm [7]

COc1c(NC(=O)c2ccc(OC(F)(F)F)cc2)cccc1C(=O)Nc1c(Br)cc(C(F)(C(F)(F)F)C(F)(F)F)cc1OC(F)F [Compound 50]
≥ 80%: pest or weed control at 200 ppm [1] | pest or weed control at 200 ppm [2] | pest or weed control at 200 ppm [3] | pest or weed control at 200 ppm [4] | pest or weed control at 200 ppm [5] | pest or weed control at 200 ppm [6] | pest or weed control at 12.5 ppm [7]

O=C(Nc1cccc(C(=O)Nc2c(Br)cc(C(F)(C(F)(F)F)C(F)(F)F)cc2OC(F)F)c1F)c1ccc([N+](=O)[O-])cc1Cl [Compound 25]
≥ 80%: pest or weed control at 200 ppm [1] | pest or weed control at 200 ppm [2] | pest or weed control at 200 ppm [3] | pest or weed control at 200 ppm [4] | pest or weed control at 200 ppm [5] | pest or weed control at 200 ppm [6] | pest or weed control at 12.5 ppm [7]

CCN(C(=O)c1ccncc1)c1cccc(C(=O)Nc2c(Cl)cc(C(F)(C(F)(F)F)C(F)(F)F)cc2OC(F)F)c1F [Compound 19]
≥ 80%: pest or weed control at 200 ppm [1] | pest or weed control at 200 ppm [2] | pest or weed control at 200 ppm [3] | pest or weed control at 200 ppm [4] | pest or weed control at 200 ppm [5] | pest or weed control at 200 ppm [6] | pest or weed control at 12.5 ppm [7]

CCN(C(=O)c1ccc(F)cc1)c1cccc(C(=O)Nc2c(Br)cc(C(F)(C(F)(F)F)C(F)(F)F)cc2OC(F)F)c1F [Compound 128]
≥ 80%: pest or weed control at 200 ppm [1] | pest or weed control at 200 ppm [2] | pest or weed control at 200 ppm [3] | pest or weed control at 200 ppm [4] | pest or weed control at 200 ppm [5] | pest or weed control at 200 ppm [6] | pest or weed control at 12.5 ppm [7]

COc1c(NC(=O)c2ccncc2)cccc1C(=O)Nc1c(Cl)cc(C(F)(C(F)(F)F)C(F)(F)F)cc1OC(F)F [Compound 16]
≥ 80%: pest or weed control at 200 ppm [1] | pest or weed control at 200 ppm [2] | pest or weed control at 200 ppm [3] | pest or weed control at 200 ppm [4] | pest or weed control at 200 ppm [5] | pest or weed control at 200 ppm [6] | pest or weed control at 12.5 ppm [7]

CCN(C(=O)c1cc[n+]([O-])cc1)c1cccc(C(=O)Nc2c(Br)cc(C(F)(C(F)(F)F)C(F)(F)F)cc2OC(F)F)c1F [Compound 11, N-[3-[[2-bromo-6-(difluoromethoxy)-4-[1,2,2,2-tetrafluoro-1-(trifluoromethyl)ethyl]phenyl]carbamoyl]-2-fluoro-phenyl]-N-ethyl-1-oxido-pyridin-1-ium-4-carboxamide]
≥ 80%: pest or weed control at 200 ppm [1] | pest or weed control at 200 ppm [2] | pest or weed control at 200 ppm [3] | pest or weed control at 200 ppm [4] | pest or weed control at 200 ppm [5] | pest or weed control at 200 ppm [6] | pest or weed control at 12.5 ppm [7]
